Drawing on BindingDB's records for doi:10.1021/jm960450v (National Cancer Institute-Bethesda, 1997), this text covers IC50 for ten compounds.

Molecules are shown by their SMILES.

In assay [1] the target is T1, Integrase (Human immunodeficiency virus 1, UniProt Q7ZJM1). In words: Integration of DNA by HIV -1 integrase.
Assay [2] deals with T1, Integrase. In words: Inhibitory activity against 3'-processing of DNA byHIV-1 integrase.
Assay [3] has as its target T1, Integrase. Put plainly: Inhibitory activity against 3'-processing of DNA by HIV-1 integrase.

T1 sequence (Q7ZJM1 whole entry): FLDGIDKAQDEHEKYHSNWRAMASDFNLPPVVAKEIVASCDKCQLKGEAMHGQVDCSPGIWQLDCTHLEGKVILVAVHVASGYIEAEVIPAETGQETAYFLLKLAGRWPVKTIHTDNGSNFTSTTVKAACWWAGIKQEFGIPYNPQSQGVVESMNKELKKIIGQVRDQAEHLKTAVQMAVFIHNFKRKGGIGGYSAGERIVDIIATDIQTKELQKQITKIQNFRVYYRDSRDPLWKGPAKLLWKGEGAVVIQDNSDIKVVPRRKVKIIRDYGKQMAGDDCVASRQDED

In turn, `O=c1oc2ccccc2c(O)c1C(c1cc(OCc2ccccc2)cc(OCc2ccccc2)c1)c1c(O)c2ccccc2oc1=O` had an IC50 in assay [1] of 12 µM.
Compound `O=c1oc2ccccc2c(O)c1C(c1ccc([N+](=O)[O-])cc1)c1c(O)c2ccccc2oc1=O` registered an IC50 in assay [2] of 50 µM.
As for `O=c1oc2ccccc2c(O)c1C(c1ccc(-c2ccccc2)cc1)c1c(O)c2ccccc2oc1=O`, inhibition in assay [3] was half-maximal at 14 µM (IC50).
As for `O=c1oc2ccccc2c(O)c1C(c1ccc2ccccc2c1)c1c(O)c2ccccc2oc1=O`, the IC50 in assay [3] was 20 µM; in assay [1] it was 16 µM.
For `CN(C)c1ccc(C(c2c(O)c3ccccc3oc2=O)c2c(O)c3ccccc3oc2=O)cc1`, the results for the IC50 in assay [3], in assay [2] and in assay [1] were 100 µM, 88 µM and 50 µM, respectively.
Regarding `O=c1oc2ccccc2c(O)c1C(c1ccco1)c1c(O)c2ccccc2oc1=O`, in assay [3], the IC50 is 34 µM.
Still for that read-out and setting: next, `O=c1oc2ccccc2c(O)c1C(c1cccs1)c1c(O)c2ccccc2oc1=O`: 100 µM; `O=c1oc2ccccc2c(O)c1C(c1ccc(OCc2ccccc2)cc1)c1c(O)c2ccccc2oc1=O` [3-[4-benzyloxyphenyl(4-hydroxy-2-oxo-2H-3-chromenyl)methyl]-4-hydroxy-2H-2-chromenone]: 19 µM.
The same measure, in the same setting: next, `O=c1oc2ccccc2c(O)c1C(c1ccc2c(c1)Cc1ccccc1-2)c1c(O)c2ccccc2oc1=O` [3-[9H-2-fluorenyl(4-hydroxy-2-oxo-2H-3-chromenyl)methyl]-4-hydroxy-2H-2-chromenone]: 11 µM.
Same read-out and setting: next, `O=c1oc2ccccc2c(O)c1Cc1cccc(Cc2c(O)c3ccccc3oc2=O)c1` [4-hydroxy-3-[3-(4-hydroxy-2-oxo-2H-3-chromenylmethyl)benzyl]-2H-2-chromenone]: 34 µM.

As usually defined, the IC50 is the concentration at which inhibition is half-maximal. A high value points to lower potency.
